Assay results as given in patent publication US20060069132A1, “Azolecarboxamide herbicides” (priority 2004, published 2006).

Tests used:
Test in all cases: Test E pre-/postemergence herbicide test
Conditions in all cases: Preemergence
[1] = test system: downy bromegrass; assay type: in vivo, Bromus tectorum
How it was run: (§1)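 Each species was compared with untreated controls 12 to 14 days after greenhouse application and assigned a visual score from 0 (no effect) to 100 (complete control). Applications were preemergence to seeded soil or postemergence to 1- to 4-leaf plants, using a solvent-plus-surfactant formulation.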

[2] = test system: common sowthistle; assay type: in vivo, Sonchus oleraceous
How it was run: as §1

[3] = test system: southern sandbur; assay type: in vivo, Cenchrus echinatus
How it was run: as §1

[4] = test system: Russian thistle; assay type: in vivo, Salsola kali
How it was run: as §1

[5] = test system: Canada horseweed; assay type: in vivo, Erigeron Canadensis
How it was run: as §1

[6] = test system: quackgrass; assay type: in vivo, Elytrigia repens
How it was run: as §1

[7] = test system: green foxtail; assay type: in vivo, Setaria viridis
How it was run: as §1

[8] = test system: mustard; assay type: in vivo, Brassica nigra
How it was run: as §1

[9] = test system: common chickweed; assay type: in vivo, Stellaria media
How it was run: as §1

[10] = test system: johnsongrass; assay type: in vivo, Sorghum halepense
How it was run: as §1

[11] = test system: guineagrass; assay type: in vivo, Panicum maximum
How it was run: as §1

[12] = test system: bermudagrass; assay type: in vivo, Cynodon dactylon
How it was run: as §1

[13] = test system: purple nutsedge; assay type: in vivo, Cyperus rotundus
How it was run: as §1

[14] = test system: common purslane; assay type: in vivo, Portulaca oleracea
How it was run: as §1

[15] = test system: field bindweed; assay type: in vivo, Convolvulus arvensis
How it was run: as §1

[16] = test system: prickly sida; assay type: in vivo, Sida spinosa
How it was run: as §1

[17] = test system: large crabgrass; assay type: in vivo, Digitaria sanguinalis
How it was run: as §1

[18] = 250 g ai/ha, scale 0 (no effect) to 100 (complete control)
[19] = 500 g ai/ha, scale 0 (no effect) to 100 (complete control)

SMILES: CCc1nn(C(C)(C)CC)nc1C(=O)Nc1cccc(C(=O)N(C)C)c1 [Compound 372]
- Plant response rating, Bromegrass, Downy ([1]; 62 g ai/ha, scale 0 to 100): 20
- Plant response rating, Bromegrass, Downy ([1]; 125 g ai/ha, scale 0 to 100): 70
- Plant response rating, Bromegrass, Downy [1, 18]: 80
- Plant response rating, Bromegrass, Downy [1, 19]: 85
- Plant response rating, Sowthistle ([2]; 62 g ai/ha, scale 0 to 100): 10
- Plant response rating, Sowthistle ([2]; 125 g ai/ha, scale 0 to 100): 40
- Plant response rating, Sowthistle [2, 18]: 40
- Plant response rating, Sowthistle [2, 19]: 95
- Plant response rating, Sandbur ([3]; 62 g ai/ha, scale 0 to 100): 20
- Plant response rating, Sandbur ([3]; 125 g ai/ha, scale 0 to 100): 30
- Plant response rating, Sandbur [3, 18]: 60
- Plant response rating, Sandbur [3, 19]: 70
- Plant response rating, Thistle ([4]; 125 g ai/ha, scale 0 to 100): 40
- Plant response rating, Thistle [4, 19]: 80
- Plant response rating, Horseweed ([5]; 62 g ai/ha, scale 0 to 100): 80
- Plant response rating, Horseweed ([5]; 125 g ai/ha, scale 0 to 100): 80
- Plant response rating, Horseweed [5, 18]: 95
- Plant response rating, Horseweed [5, 19]: 100
- Plant response rating, Quackgrass ([6]; 62 g ai/ha, scale 0 to 100): 30
- Plant response rating, Quackgrass ([6]; 125 g ai/ha, scale 0 to 100): 60
- Plant response rating, Quackgrass [6, 18]: 95
- Plant response rating, Quackgrass [6, 19]: 95
- Plant response rating, Foxtail, Green ([7]; 62 g ai/ha, scale 0 to 100): 10
- Plant response rating, Foxtail, Green ([7]; 125 g ai/ha, scale 0 to 100): 50
- Plant response rating, Foxtail, Green [7, 18]: 60
- Plant response rating, Foxtail, Green [7, 19]: 70
- Plant response rating, Black Mustard ([8]; 62 g ai/ha, scale 0 to 100): 100
- Plant response rating, Black Mustard ([8]; 125 g ai/ha, scale 0 to 100): 100
- Plant response rating, Black Mustard [8, 18]: 100
- Plant response rating, Black Mustard [8, 19]: 100
- Plant response rating, Chickweed ([9]; 62 g ai/ha, scale 0 to 100): 60
- Plant response rating, Chickweed ([9]; 125 g ai/ha, scale 0 to 100): 90
- Plant response rating, Chickweed [9, 18]: 95
- Plant response rating, Chickweed [9, 19]: 95
- Plant response rating, Johnsongrass ([10]; 62 g ai/ha, scale 0 to 100): 30
- Plant response rating, Johnsongrass ([10]; 125 g ai/ha, scale 0 to 100): 50
- Plant response rating, Johnsongrass [10, 18]: 70
- Plant response rating, Johnsongrass [10, 19]: 80
- Plant response rating, Guineagrass ([11]; 62 g ai/ha, scale 0 to 100): 40
- Plant response rating, Guineagrass ([11]; 125 g ai/ha, scale 0 to 100): 80
- Plant response rating, Guineagrass [11, 18]: 80
- Plant response rating, Guineagrass [11, 19]: 95
- Plant response rating, Bermudagrass ([12]; 62 g ai/ha, scale 0 to 100): 10
- Plant response rating, Bermudagrass ([12]; 125 g ai/ha, scale 0 to 100): 60
- Plant response rating, Bermudagrass [12, 18]: 60
- Plant response rating, Bermudagrass [12, 19]: 90
- Plant response rating, Nutsedge, Purple ([13]; 62 g ai/ha, scale 0 to 100): 30
- Plant response rating, Nutsedge, Purple [13, 18]: 50
- Plant response rating, Nutsedge, Purple [13, 19]: 100
- Plant response rating, Purslane ([14]; 62 g ai/ha, scale 0 to 100): 10
- Plant response rating, Purslane ([14]; 125 g ai/ha, scale 0 to 100): 40
- Plant response rating, Purslane [14, 18]: 50
- Plant response rating, Purslane [14, 19]: 100
- Plant response rating, Bindweed, Field ([15]; 62 g ai/ha, scale 0 to 100): 10
- Plant response rating, Bindweed, Field ([15]; 125 g ai/ha, scale 0 to 100): 10
- Plant response rating, Bindweed, Field [15, 18]: 50
- Plant response rating, Bindweed, Field [15, 19]: 60
- Plant response rating, Prickly Sida ([16]; 62 g ai/ha, scale 0 to 100): 20
- Plant response rating, Prickly Sida [16, 18]: 95
- Plant response rating, Prickly Sida [16, 19]: 95
- Plant response rating, Crabgrass, Large ([17]; 62 g ai/ha, scale 0 to 100): 10
- Plant response rating, Crabgrass, Large ([17]; 125 g ai/ha, scale 0 to 100): 50
- Plant response rating, Crabgrass, Large [17, 18]: 70
- Plant response rating, Crabgrass, Large [17, 19]: 100
